Structures are written as SMILES.

The nature of one data set: Processing / curing time of the adhesive from prepolymer A-1 and secondary diamine. The settings on record: 1 g prepolymer A-1 with equivalent quantity of diamine, applied thinly onto tissue. Format: physicochemical. The protocol: 1 g of the prepolymer A-1 were stirred well in a beaker with an equivalent quantity of dimethyl 2,2′-(pentane-1,5-diylbis(azandiyl))bis(4-methylpentanoate). Directly after this, the reaction mixture was applied thinly onto the tissue to be glued. […] After 2 mins, the surface of the adhesive was no longer tacky.
For `COC(=O)C(CC(C)C)NCCCCCNC(CC(C)C)C(=O)OC` (stereo not drawn) [Example 2, Dimethyl 2,2′-(pentan-1,5-diylbis(azandiyl))bis(4-methylpentanoate)], the “Curing to a transparent film” value is listed as at most 1 min and the “Time after which surface of the adhesive was no longer tacky” value worked out at 2 min.

Staying with this data set, now noted: diamine as curing agent for prepolymer A-1.
The compound `COC(=O)C(CC(C)C)NCCCCCNC(CC(C)C)C(=O)OC` (stereo not drawn) [drawing 17] had a Processing time of 4 min.

As to `CCOC(=O)C(C)NCCCCNC(C)C(=O)OCC` (stereo not drawn), the Processing time was determined as 0.7 min. In turn, `COC(=O)C(NCCCNC(C(=O)OC)C(C)C)C(C)C` (stereo not drawn) displayed a Processing time of 4 min. Turning to `CCC(C)C(NCCCNC(C(=O)OC)C(C)CC)C(=O)OC` (stereo not drawn), the Processing time is 3 min. `CCOC(=O)C(C)NCCCCCNC(C)C(=O)OCC` (stereo not drawn) displayed a Processing time of 0.55 min. As for `COC(=O)C(Cc1ccccc1)NCCCNC(Cc1ccccc1)C(=O)OC` (stereo not drawn), the Processing time was 4 min. `COC(=O)C(Cc1ccccc1)NCCCCCCNC(Cc1ccccc1)C(=O)OC` (stereo not drawn) yielded a Processing time of 4 min.
